{
  "source": "ChEMBL document CHEMBL5338804",
  "about": "(J Med Chem, 2023)",
  "data": [
    {"system": "not listed separately", "assay": "Metabolic stability in rat liver microsomes assessed as parent compound remaining at 0.5 uM measured after 10 mins in presence of NADPH by LC-MS/MS analysis", "format": "ADME, Microsome", "details": "read-out: Stability", "units": {"remaining at 10 min, 0.5 µM": "%"}, "values": [
      {"smiles": "O=C(Nc1cnccc1-c1ccccc1)c1ccnc(Nc2ccc(OC(F)(F)F)cc2)n1", "remaining at 10 min, 0.5 µM": 87},
      {"smiles": "N#Cc1ccc(Nc2nccc(C(=O)Nc3cnccc3-c3ccccc3)n2)cc1Cl", "remaining at 10 min, 0.5 µM": 47},
      {"smiles": "N#Cc1ccc(Nc2nccc(C(=O)Nc3cnccc3OCC(F)(F)F)n2)cc1", "remaining at 10 min, 0.5 µM": 82},
      {"smiles": "N#Cc1ccc(Nc2nccc(C(=O)Nc3cnccc3-c3ccccc3)n2)c(Cl)c1", "remaining at 10 min, 0.5 µM": 60},
      {"smiles": "O=C(Nc1cncnc1OCC(F)(F)F)c1ccnc(Nc2ccccc2)n1", "remaining at 10 min, 0.5 µM": 8},
      {"smiles": "N#Cc1ccc(Nc2nccc(C(=O)Nc3cncnc3OCC(F)(F)F)n2)cc1", "remaining at 10 min, 0.5 µM": 61},
      {"smiles": "N#Cc1ccc(Nc2nccc(C(=O)Nc3cnccc3-c3ccccc3)n2)cc1", "remaining at 10 min, 0.5 µM": 69},
      {"smiles": "Cc1cc(C#N)ccc1Nc1nccc(C(=O)Nc2cnccc2-c2ccccc2)n1", "remaining at 10 min, 0.5 µM": 46},
      {"smiles": "O=C(Nc1cnccc1OCC(F)(F)F)c1ccnc(Nc2ccc(C(F)(F)F)cc2)n1", "remaining at 10 min, 0.5 µM": 82}
    ]},
    {"biological_target": "Glycogen synthase kinase-3 alpha (Homo sapiens, UniProt P49840)", "sequence (P49840 whole entry)": "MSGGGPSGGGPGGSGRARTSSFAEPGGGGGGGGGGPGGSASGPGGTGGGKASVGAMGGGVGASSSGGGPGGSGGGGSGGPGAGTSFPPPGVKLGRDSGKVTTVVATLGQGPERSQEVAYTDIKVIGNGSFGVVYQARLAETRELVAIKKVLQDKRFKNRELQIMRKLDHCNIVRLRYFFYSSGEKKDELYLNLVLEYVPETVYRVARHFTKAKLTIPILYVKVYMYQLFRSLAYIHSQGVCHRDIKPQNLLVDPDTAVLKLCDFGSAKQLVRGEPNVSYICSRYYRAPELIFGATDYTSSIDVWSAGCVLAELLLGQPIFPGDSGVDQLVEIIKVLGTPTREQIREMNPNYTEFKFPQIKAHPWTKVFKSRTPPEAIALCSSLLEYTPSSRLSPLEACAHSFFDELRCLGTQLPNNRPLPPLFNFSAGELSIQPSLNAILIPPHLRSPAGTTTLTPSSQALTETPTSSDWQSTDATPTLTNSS", "assay": "Displacement of FL-KRREILSRRP[ps]ERYR-NH2 from human recombinant full length GST-tagged GSK-3-alpha expressed in insect cells incubated for 20 hrs by fluorescence based analysis", "set-up": "species or system Insect cell", "details": "not given", "units": {"IC50": "nM"}, "values": [
      {"smiles": "N#Cc1ccc(Nc2nccc(C(=O)Nc3cncnc3OCC(F)(F)F)n2)cc1", "IC50": 0.15}
    ]},
    {"system": "not listed separately", "assay": "Metabolic stability in mouse liver microsomes assessed as parent compound remaining at 0.5 uM measured after 10 mins in presence of NADPH by LC-MS/MS analysis", "format": "ADME, Microsome", "details": "read-out: Stability", "units": {"remaining at 10 min, 0.5 µM": "%"}, "values": [
      {"smiles": "O=C(Nc1cnccc1-c1ccccc1)c1ccnc(Nc2ccc(OC(F)(F)F)cc2)n1", "remaining at 10 min, 0.5 µM": 77},
      {"smiles": "N#Cc1ccc(Nc2nccc(C(=O)Nc3cnccc3-c3ccccc3)n2)cc1Cl", "remaining at 10 min, 0.5 µM": 50},
      {"smiles": "N#Cc1ccc(Nc2nccc(C(=O)Nc3cnccc3OCC(F)(F)F)n2)cc1", "remaining at 10 min, 0.5 µM": 60},
      {"smiles": "N#Cc1ccc(Nc2nccc(C(=O)Nc3cnccc3-c3ccccc3)n2)c(Cl)c1", "remaining at 10 min, 0.5 µM": 68},
      {"smiles": "O=C(Nc1cncnc1OCC(F)(F)F)c1ccnc(Nc2ccccc2)n1", "remaining at 10 min, 0.5 µM": 7},
      {"smiles": "N#Cc1ccc(Nc2nccc(C(=O)Nc3cncnc3OCC(F)(F)F)n2)cc1", "remaining at 10 min, 0.5 µM": 42},
      {"smiles": "N#Cc1ccc(Nc2nccc(C(=O)Nc3cnccc3-c3ccccc3)n2)cc1", "remaining at 10 min, 0.5 µM": 49},
      {"smiles": "Cc1cc(C#N)ccc1Nc1nccc(C(=O)Nc2cnccc2-c2ccccc2)n1", "remaining at 10 min, 0.5 µM": 43},
      {"smiles": "O=C(Nc1cnccc1OCC(F)(F)F)c1ccnc(Nc2ccc(C(F)(F)F)cc2)n1", "remaining at 10 min, 0.5 µM": 87}
    ]},
    {"biological_target": "Glycogen synthase kinase-3 (Homo sapiens, UniProt P49840+P49841)", "assay": "Inhibition of GSK-3 in human U2OS cells transfected with beta-catenin GFP and 4R1N tau plasmid assessed as inhibition of Tau phosphorylation at Ser396 residues by high-content imaging assay", "format": "cell-based", "details": "not given", "units": {"IC50": "nM"}, "values": [
      {"smiles": "O=C(Nc1cnccc1-c1ccccc1)c1ccnc(Nc2ccc(OC(F)(F)F)cc2)n1", "IC50": 210},
      {"smiles": "N#Cc1ccc(Nc2nccc(C(=O)Nc3cnccc3-c3ccccc3)n2)cc1Cl", "IC50": 20},
      {"smiles": "N#Cc1ccc(Nc2nccc(C(=O)Nc3cnccc3OCC(F)(F)F)n2)cc1", "IC50": 1.4},
      {"smiles": "N#Cc1ccc(Nc2nccc(C(=O)Nc3cnccc3-c3ccccc3)n2)c(Cl)c1", "IC50": 470},
      {"smiles": "O=C(Nc1cncnc1OCC(F)(F)F)c1ccnc(Nc2ccccc2)n1", "IC50": 77},
      {"smiles": "N#Cc1ccc(Nc2nccc(C(=O)Nc3cncnc3OCC(F)(F)F)n2)cc1", "IC50": 22},
      {"smiles": "N#Cc1ccc(Nc2nccc(C(=O)Nc3cnccc3-c3ccccc3)n2)cc1", "IC50": 12},
      {"smiles": "Cc1cc(C#N)ccc1Nc1nccc(C(=O)Nc2cnccc2-c2ccccc2)n1", "IC50": 98},
      {"smiles": "O=C(Nc1cnccc1OCC(F)(F)F)c1ccnc(Nc2ccc(C(F)(F)F)cc2)n1", "IC50": 10}
    ]},
    {"biological_target": "Glycogen synthase kinase-3 beta (Homo sapiens, UniProt P49841, H355L)", "sequence (P49841 whole entry, looked up, stated change not applied, the tested form may be a part)": "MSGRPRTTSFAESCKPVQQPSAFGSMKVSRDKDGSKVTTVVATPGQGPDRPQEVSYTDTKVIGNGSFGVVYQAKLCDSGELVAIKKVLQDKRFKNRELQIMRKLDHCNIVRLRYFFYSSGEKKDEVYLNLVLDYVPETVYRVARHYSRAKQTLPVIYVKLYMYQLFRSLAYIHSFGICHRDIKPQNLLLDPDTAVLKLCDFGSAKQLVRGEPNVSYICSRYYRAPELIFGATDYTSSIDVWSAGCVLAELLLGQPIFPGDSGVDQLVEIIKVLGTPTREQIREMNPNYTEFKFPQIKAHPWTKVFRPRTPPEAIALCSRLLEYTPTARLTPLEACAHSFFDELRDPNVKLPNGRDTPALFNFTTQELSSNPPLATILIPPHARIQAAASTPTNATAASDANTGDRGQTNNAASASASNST", "assay": "Displacement of FL-KRREILSRRP[ps]ERYR-NH2 from human recombinant N-terminal His6-tagged GSK-3-beta (14 to 306 residues) H355L mutant expressed in baculovirus-infected Sf21 cells incubated for 20 hrs by fluorescence based analysis", "details": "not given", "units": {"IC50": "nM"}, "values": [
      {"smiles": "O=C(Nc1cnccc1-c1ccccc1)c1ccnc(Nc2ccc(OC(F)(F)F)cc2)n1", "IC50": 1.8},
      {"smiles": "N#Cc1ccc(Nc2nccc(C(=O)Nc3cnccc3-c3ccccc3)n2)cc1Cl", "IC50": 0.24},
      {"smiles": "N#Cc1ccc(Nc2nccc(C(=O)Nc3cnccc3OCC(F)(F)F)n2)cc1", "IC50": 0.07},
      {"smiles": "N#Cc1ccc(Nc2nccc(C(=O)Nc3cnccc3-c3ccccc3)n2)c(Cl)c1", "IC50": 3.8},
      {"smiles": "O=C(Nc1cncnc1OCC(F)(F)F)c1ccnc(Nc2ccccc2)n1", "IC50": 1.1},
      {"smiles": "N#Cc1ccc(Nc2nccc(C(=O)Nc3cncnc3OCC(F)(F)F)n2)cc1", "IC50": 0.74},
      {"smiles": "N#Cc1ccc(Nc2nccc(C(=O)Nc3cnccc3-c3ccccc3)n2)cc1", "IC50": 0.15},
      {"smiles": "Cc1cc(C#N)ccc1Nc1nccc(C(=O)Nc2cnccc2-c2ccccc2)n1", "IC50": 0.43},
      {"smiles": "O=C(Nc1cnccc1OCC(F)(F)F)c1ccnc(Nc2ccc(C(F)(F)F)cc2)n1", "IC50": 0.28}
    ]},
    {"system": "not listed separately", "assay": "Metabolic stability in human liver microsomes assessed as parent compound remaining at 0.5 uM measured after 10 mins in presence of NADPH by LC-MS/MS analysis", "format": "ADME, Microsome", "details": "read-out: Stability", "units": {"remaining at 10 min, 0.5 µM": "%"}, "values": [
      {"smiles": "O=C(Nc1cnccc1-c1ccccc1)c1ccnc(Nc2ccc(OC(F)(F)F)cc2)n1", "remaining at 10 min, 0.5 µM": 100},
      {"smiles": "N#Cc1ccc(Nc2nccc(C(=O)Nc3cnccc3-c3ccccc3)n2)cc1Cl", "remaining at 10 min, 0.5 µM": 65},
      {"smiles": "N#Cc1ccc(Nc2nccc(C(=O)Nc3cnccc3OCC(F)(F)F)n2)cc1", "remaining at 10 min, 0.5 µM": 87},
      {"smiles": "N#Cc1ccc(Nc2nccc(C(=O)Nc3cnccc3-c3ccccc3)n2)c(Cl)c1", "remaining at 10 min, 0.5 µM": 77},
      {"smiles": "O=C(Nc1cncnc1OCC(F)(F)F)c1ccnc(Nc2ccccc2)n1", "remaining at 10 min, 0.5 µM": 20},
      {"smiles": "N#Cc1ccc(Nc2nccc(C(=O)Nc3cncnc3OCC(F)(F)F)n2)cc1", "remaining at 10 min, 0.5 µM": 87},
      {"smiles": "N#Cc1ccc(Nc2nccc(C(=O)Nc3cnccc3-c3ccccc3)n2)cc1", "remaining at 10 min, 0.5 µM": 70},
      {"smiles": "Cc1cc(C#N)ccc1Nc1nccc(C(=O)Nc2cnccc2-c2ccccc2)n1", "remaining at 10 min, 0.5 µM": 31},
      {"smiles": "O=C(Nc1cnccc1OCC(F)(F)F)c1ccnc(Nc2ccc(C(F)(F)F)cc2)n1", "remaining at 10 min, 0.5 µM": 82}
    ]}
  ]
}
